# Laboratory results from US8895004B2 (priority 2007, dated 2014).
# Where two headings read alike, the source gives them in different places.
# Legend:
# [1] = system: cells predominantly expressing presynaptic N-type calcium channels; assay type: cell-based, rat
# L-type calcium currents = assay type: cell-based, rat
# [2] = system: cultured hippocampal neurons; assay type: cell-based, rat
# [3] = system: cultured hippocampal neurons; assay: sPSC frequency at 1 mM and 4 mM extracellular Ca2+ after Aβ(1-42) globulomer; assay type: cell-based
# Procedure: Spontaneous synaptic activity was measured in cultured hippocampal neurons using whole-cell voltage clamp techniques (Vhold=−70 mV). Under the ionic conditions used (ECl˜−10 mV) all synaptic events appeared as inward currents.
# Currents recorded prior to the addition of the globulomer served as control describing basal synaptic transmission. Currents recorded in the interval immediately after application were analysed with respect to the control data. Afterwards, extracellular Ca^2+ was elevated from 1 mM to 4 mM (leaving the concentration of globulomer unchanged). Currents in the following 5 min recording interval were again analysed with respect to control data.
# [4] = target: T1, P/Q-type calcium channels (Rattus norvegicus, UniProt P54282); assay type: cell-based
# T1 construct: Typical P/Q channel-mediated currents could be reliably elicited in somatic whole-cell recordings under our culture conditions; endogenous in cells; host or cells: cultured hippocampal neurons
# [5] = system: hippocampal slice cultures; assay: Evoked synaptic transmission in hippocampal slice cultures after overnight incubation; conditions: globulomer approx. 1 μM monomer
# hippocampal slice = assay: Spontaneous synaptic currents in acute hippocampal slice, CA1 pyramidal cells; assay type: cell-based; conditions: mouse slice
# Procedure: 400 μm thick slices were prepared from freshly dissected hippocampi of the mouse using a method known per se (Dingledine R. Brain Slices. New York: Plenum Press, 1983).
# GABAA receptors = assay type: cell-based, rat
# [6] = system: cultured hippocampal neurons
# [7] = globulomer, after elevation of Ca2+ to 4 mM
# T1 sequence (Q8CFG6 19-1157): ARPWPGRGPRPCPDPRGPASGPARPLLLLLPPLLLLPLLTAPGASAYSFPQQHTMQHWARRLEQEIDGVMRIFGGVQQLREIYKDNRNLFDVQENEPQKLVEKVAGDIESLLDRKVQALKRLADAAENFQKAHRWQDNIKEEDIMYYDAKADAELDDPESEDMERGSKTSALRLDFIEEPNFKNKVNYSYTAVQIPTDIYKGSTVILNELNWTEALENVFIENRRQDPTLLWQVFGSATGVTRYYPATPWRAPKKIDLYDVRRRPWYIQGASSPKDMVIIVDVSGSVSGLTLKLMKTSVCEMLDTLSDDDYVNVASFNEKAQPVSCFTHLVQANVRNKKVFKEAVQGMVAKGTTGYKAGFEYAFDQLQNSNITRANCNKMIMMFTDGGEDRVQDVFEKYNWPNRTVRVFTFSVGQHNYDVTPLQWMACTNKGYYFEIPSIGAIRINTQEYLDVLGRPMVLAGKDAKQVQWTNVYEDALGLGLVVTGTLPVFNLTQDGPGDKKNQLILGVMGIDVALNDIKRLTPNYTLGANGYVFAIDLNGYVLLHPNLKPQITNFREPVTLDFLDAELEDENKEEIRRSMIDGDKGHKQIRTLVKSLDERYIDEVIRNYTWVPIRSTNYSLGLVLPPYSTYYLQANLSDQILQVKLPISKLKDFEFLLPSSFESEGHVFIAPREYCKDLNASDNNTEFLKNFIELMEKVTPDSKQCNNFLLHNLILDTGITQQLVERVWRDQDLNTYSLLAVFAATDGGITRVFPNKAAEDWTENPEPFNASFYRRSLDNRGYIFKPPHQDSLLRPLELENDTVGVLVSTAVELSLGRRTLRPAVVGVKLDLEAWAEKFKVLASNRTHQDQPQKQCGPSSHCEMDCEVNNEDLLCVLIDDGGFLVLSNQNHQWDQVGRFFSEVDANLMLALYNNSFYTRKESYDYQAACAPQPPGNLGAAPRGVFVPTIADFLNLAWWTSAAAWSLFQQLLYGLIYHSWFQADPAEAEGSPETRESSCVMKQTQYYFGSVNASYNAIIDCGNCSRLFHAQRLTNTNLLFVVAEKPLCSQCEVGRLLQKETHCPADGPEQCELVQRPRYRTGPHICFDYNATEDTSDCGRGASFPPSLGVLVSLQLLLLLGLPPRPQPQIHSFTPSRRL
# T1 sequence (P54282 whole entry): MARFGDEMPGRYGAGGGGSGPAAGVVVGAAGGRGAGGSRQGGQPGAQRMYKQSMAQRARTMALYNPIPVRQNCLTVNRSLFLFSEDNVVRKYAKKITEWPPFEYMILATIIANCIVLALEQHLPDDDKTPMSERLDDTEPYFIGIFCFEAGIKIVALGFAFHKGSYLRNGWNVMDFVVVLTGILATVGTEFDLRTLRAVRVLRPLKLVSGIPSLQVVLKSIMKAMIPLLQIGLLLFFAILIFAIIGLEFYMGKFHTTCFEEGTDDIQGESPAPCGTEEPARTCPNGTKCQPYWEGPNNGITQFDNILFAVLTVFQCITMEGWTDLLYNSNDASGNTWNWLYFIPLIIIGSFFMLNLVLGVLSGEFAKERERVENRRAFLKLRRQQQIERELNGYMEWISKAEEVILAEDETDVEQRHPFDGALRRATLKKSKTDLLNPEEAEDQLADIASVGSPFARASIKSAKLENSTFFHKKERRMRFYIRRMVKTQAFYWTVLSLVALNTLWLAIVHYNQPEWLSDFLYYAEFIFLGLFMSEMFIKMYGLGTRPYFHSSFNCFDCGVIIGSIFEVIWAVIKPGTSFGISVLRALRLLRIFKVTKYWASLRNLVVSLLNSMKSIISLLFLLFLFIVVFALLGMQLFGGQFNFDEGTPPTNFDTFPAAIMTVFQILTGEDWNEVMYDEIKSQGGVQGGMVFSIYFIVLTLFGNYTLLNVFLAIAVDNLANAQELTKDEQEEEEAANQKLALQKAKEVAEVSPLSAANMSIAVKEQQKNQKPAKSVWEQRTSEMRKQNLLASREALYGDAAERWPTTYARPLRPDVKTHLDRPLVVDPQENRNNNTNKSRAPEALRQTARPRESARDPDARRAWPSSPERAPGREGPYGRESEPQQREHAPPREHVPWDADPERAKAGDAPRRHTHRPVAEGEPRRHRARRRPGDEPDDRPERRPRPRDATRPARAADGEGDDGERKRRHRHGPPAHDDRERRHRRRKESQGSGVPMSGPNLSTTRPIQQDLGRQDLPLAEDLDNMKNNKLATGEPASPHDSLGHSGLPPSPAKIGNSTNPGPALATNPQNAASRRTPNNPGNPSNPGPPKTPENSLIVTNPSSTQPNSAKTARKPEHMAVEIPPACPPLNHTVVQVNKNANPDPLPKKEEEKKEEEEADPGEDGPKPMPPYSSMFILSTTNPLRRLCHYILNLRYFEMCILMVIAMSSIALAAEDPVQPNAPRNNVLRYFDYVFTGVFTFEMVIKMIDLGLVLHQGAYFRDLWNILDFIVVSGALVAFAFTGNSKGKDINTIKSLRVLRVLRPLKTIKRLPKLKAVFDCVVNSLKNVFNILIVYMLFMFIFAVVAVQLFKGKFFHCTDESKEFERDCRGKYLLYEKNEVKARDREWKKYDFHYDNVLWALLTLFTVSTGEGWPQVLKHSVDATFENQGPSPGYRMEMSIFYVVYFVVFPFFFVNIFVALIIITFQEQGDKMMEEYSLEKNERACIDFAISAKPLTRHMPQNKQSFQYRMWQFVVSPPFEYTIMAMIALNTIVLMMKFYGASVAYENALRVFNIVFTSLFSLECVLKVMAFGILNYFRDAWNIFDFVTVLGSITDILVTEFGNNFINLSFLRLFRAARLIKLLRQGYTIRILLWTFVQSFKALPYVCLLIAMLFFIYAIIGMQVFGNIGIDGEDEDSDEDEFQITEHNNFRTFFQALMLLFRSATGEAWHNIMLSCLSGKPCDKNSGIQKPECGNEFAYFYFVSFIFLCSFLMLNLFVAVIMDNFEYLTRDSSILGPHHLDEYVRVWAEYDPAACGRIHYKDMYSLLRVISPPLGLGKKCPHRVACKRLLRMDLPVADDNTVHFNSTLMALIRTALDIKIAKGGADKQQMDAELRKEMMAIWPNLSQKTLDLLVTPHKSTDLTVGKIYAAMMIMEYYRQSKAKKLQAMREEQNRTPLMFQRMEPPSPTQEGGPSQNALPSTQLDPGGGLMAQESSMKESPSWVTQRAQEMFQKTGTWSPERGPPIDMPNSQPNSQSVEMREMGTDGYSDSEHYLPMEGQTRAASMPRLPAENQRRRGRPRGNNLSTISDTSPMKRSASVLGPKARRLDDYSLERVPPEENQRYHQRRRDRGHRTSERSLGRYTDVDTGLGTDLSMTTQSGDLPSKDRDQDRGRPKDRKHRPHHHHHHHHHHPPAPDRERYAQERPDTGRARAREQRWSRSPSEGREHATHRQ
# T1 sequence (P54283 whole entry, further chain): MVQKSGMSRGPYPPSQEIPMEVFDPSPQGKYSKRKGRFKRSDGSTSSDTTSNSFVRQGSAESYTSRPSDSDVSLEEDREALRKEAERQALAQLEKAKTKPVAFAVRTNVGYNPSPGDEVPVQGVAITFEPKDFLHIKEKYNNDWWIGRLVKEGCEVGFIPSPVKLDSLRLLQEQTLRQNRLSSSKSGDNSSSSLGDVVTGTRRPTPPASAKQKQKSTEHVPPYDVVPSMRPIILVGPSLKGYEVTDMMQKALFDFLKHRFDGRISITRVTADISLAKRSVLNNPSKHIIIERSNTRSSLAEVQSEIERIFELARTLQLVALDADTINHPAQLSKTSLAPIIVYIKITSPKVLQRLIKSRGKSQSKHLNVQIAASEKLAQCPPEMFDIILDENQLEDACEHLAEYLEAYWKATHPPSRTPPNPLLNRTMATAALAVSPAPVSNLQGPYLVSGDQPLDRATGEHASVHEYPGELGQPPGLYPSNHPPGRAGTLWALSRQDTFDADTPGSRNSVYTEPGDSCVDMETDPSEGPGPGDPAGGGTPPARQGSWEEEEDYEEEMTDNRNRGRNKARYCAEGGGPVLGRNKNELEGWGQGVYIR
substance,measurement,setting,value
ω-agatoxin IVA (KKKCIAKDYGRCKWGGTPCCRGRGCICSIMGTNCECKPRLIMEGLGLA),spontaneous synaptic activity (frequency and amplitude) in N-dominated cells,[1],does not impair spontaneous synaptic activity
"Aβ(1-42) globulomer: soluble, globular, non-covalent association of Aβ(1-42) peptides, apparent molecular weight 38/48 kDa, obtained as in Example 6b of WO2004/067561",L-type calcium current amplitude,L-type calcium currents,573.0±225.6 pA
same,amplitude of the AP (baseline to peak),[2],110.9±16.7 mV
same,half-width time,[2],4.0 ± 2.9 ms
same,input resistance,[2],131.6±13.7 MΩ
same,maximal rate of repolarization,[2],47.4±19.3 V/s
same,maximal rate of rise,[2],84.2±50.0 V/s
same,threshold for firing,[2],−24.2±9.8 mV
same,median amplitude of sPSCs,"[3]; 1 mM Ca2+, globulomer",97±5%
same,sPSC frequency,"[3]; 1 mM Ca2+, globulomer approx. 1 μM monomer",63±7 % of control
same,median amplitude of sPSCs,[3]; [7],98±6%
same,sPSC frequency,[3]; [7],77±13 % of control
same,amplitude of P/Q-type currents,[4],62±7 % of control
same,maximal conductance (gmax),[4],27.2±3.2 nS
same,reversibility of P/Q-type current reduction,[4],partially reversible
same,slope Vc of steady-state activation,[4],−10.8±0.5 mV
same,slope Vc of steady-state inactivation,[4],−12.6±1.1 mV
same,steady-state activation Vh,[4],−17.3±1.3 mV
same,voltage at half-maximal inactivation,[4],32.4±1.2 mV
same,evoked synaptic transmission,[5],strongly suppresses synaptic transmission
same,inhibition mechanism in hippocampal slice,hippocampal slice,also valid in situ
same,GABA-induced inward currents,GABAA receptors,unaltered
same,spontaneous synaptic activity (frequency and amplitude) in N-dominated cells,[1],does not impair spontaneous synaptic activity
same,amplitude of mEPSCs,[6],96±3 % of control
same,amplitude of spontaneous EPSCs,[6],79±4 % of control
same,amplitude of spontaneous EPSCs during washout,[6],96±6%
same,amplitude of spontaneous IPSCs after withdrawal,[6],94±2%
same,amplitude of synaptic currents after pre-incubation with ω-Agatoxin IVA,[6],102±7
same,frequency of mIPSCs,[6],52±10 % of control
same,frequency of mIPSCs after washout,[6],68±12 % of control
same,frequency of mPSCs,[6],56±9 % of control
same,frequency of mPSCs after washout,[6],77±7.6 % of control
same,frequency of miniature EPSCs,[6],57±9 % of control
same,frequency of miniature EPSCs after wash-out,[6],54±8%
same,frequency of sPSCs after washout,[6],61±16%
same,frequency of spontaneous EPSCs,[6],14±4 % of control
same,frequency of spontaneous EPSCs during washout,[6],52±19 % of control
same,frequency of spontaneously occurring IPSCs,[6],64±5 % of control
same,frequency of synaptic currents after pre-incubation with ω-Agatoxin IVA,[6],108±15%
same,mIPSC amplitude,[6],81±6 % of control
same,mIPSC amplitude after washout,[6],85±6%
same,median amplitude of mPSCs,[6],30.2±5.2 pA
same,median amplitude of spontaneous IPSCs,[6],82±2 % of control
monomeric Aβ(1-42): synthetic monomeric Aβ(1-42) peptide (H-1368; Bachem) dissolved in 0.1% NaOH; likely a mixture of aggregation states,frequency of mPSCs,"[6]; 1 μM monomer, TTX",87±3 % of control
same,median amplitude of mPSCs,"[6]; 1 μM monomer, TTX",33.7±3.0 pA
